Type in all cases: in vivo
For series [1], the system named is wheat. The series can be described thus: wheat field test, crop selectivity, greenhouse spray at 4 leaf stage. The note with it: sprayed at 4 leaf stage, 4 weeks after treatment. As to the method: (§1) The activity level standard of harmful plant destruction (i.e. growth control rate) is as follows:
(§2) The above described growth control rate is fresh weight control rate.
(§3) The seeds of alopecurus japonicas, flixweed, shepherd's purse, corn gromwell, chickweed, beckmannia syzigachne, and annual ryegrass and wheat seeds were put into a plastic pot loaded with soil, and then covered with 0.5-2 cm soil, the seeds were allowed to grow in good greenhouse environment. The test plants were treated at 4 leaf stage 2-3 weeks after sowing. The test compounds of the present invention were dissolved in acetone respectively, then added with methyl oleate emulsion and diluted by certain amount of water to certain concentration. The solution was sprayed to the plant with a sprayer. Then the plants were cultured for 4 weeks in greenhouse.

The test system of the next series is rice. The series is described as follows: post-emergence stage experiment, crop (Table 1). The following applies: post-emergence spray at 4-5 leaf stage, 250 g/ha active ingredient with 450 kg/ha water, rated after 3 weeks in greenhouse. An outline of the steps: (§4)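 Post-emergence spray: compounds dissolved in acetone, Tween 80 added, diluted with water, applied to plants at 4-5 leaf stage. Plants kept 3 wk in greenhouse; activity scored as fresh-weight control rate.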

The next series has as its system corn. The series is described as follows: post-emergence stage experiment, crop (Table 1). The note with it: post-emergence spray at 4-5 leaf stage, 250 g/ha active ingredient with 450 kg/ha water, rated after 3 weeks in greenhouse. The procedure, abridged:
as §4

Series [2] has as its system wheat. The series is described as follows: post-emergence stage experiment, crop (Table 1). The following applies: post-emergence spray at 4-5 leaf stage, 250 g/ha active ingredient with 450 kg/ha water, rated after 3 weeks in greenhouse. The procedure, abridged:
as §4

The subject of a further series is echinochloa. The series can be described thus: weed control effect in post-emergence stage (Table 1). On the set-up: key: Level 10: completely dead; Level 9: above 95% growth control rate; Level 8: above 90% growth control rate; Level 7: above 80% growth control rate; Level 6: above 70% growth control rate; Level 5: above 60% growth control rate; Level 4: above 50% growth control rate; Level 3: above 20% growth control rate; Level 2: 5%-20% growth control rate; Level 1: below 5% growth control rate. The following applies: post-emergence spray at 4-5 leaf stage, 250 g/ha active ingredient with 450 kg/ha water, rated after 3 weeks in greenhouse. An outline of the steps:
as §4

The next series concerns crab grass. Described as above. Also on record: key: Level 10: completely dead; Level 9: above 95% growth control rate; Level 8: above 90% growth control rate; Level 7: above 80% growth control rate; Level 6: above 70% growth control rate; Level 5: above 60% growth control rate; Level 4: above 50% growth control rate; Level 3: above 20% growth control rate; Level 2: 5%-20% growth control rate; Level 1: below 5% growth control rate. The note with it: post-emergence spray at 4-5 leaf stage, 250 g/ha active ingredient with 450 kg/ha water, rated after 3 weeks in greenhouse. An outline of the steps: as §4

For another series, the system named is rorippa indica. The description is as above. The following applies: post-emergence spray at 4-5 leaf stage, 250 g/ha active ingredient with 450 kg/ha water, rated after 3 weeks in greenhouse. Also on record: key: Level 10: completely dead; Level 9: above 95% growth control rate; Level 8: above 90% growth control rate; Level 7: above 80% growth control rate; Level 6: above 70% growth control rate; Level 5: above 60% growth control rate; Level 4: above 50% growth control rate; Level 3: above 20% growth control rate; Level 2: 5%-20% growth control rate; Level 1: below 5% growth control rate. The procedure, abridged: as §4

The test system of another series is foxtail. The series is described as above. Also on record: key: Level 10: completely dead; Level 9: above 95% growth control rate; Level 8: above 90% growth control rate; Level 7: above 80% growth control rate; Level 6: above 70% growth control rate; Level 5: above 60% growth control rate; Level 4: above 50% growth control rate; Level 3: above 20% growth control rate; Level 2: 5%-20% growth control rate; Level 1: below 5% growth control rate. The note with it: post-emergence spray at 4-5 leaf stage, 250 g/ha active ingredient with 450 kg/ha water, rated after 3 weeks in greenhouse. An outline of the steps:
as §4

For the next series, the system named is bidens bipinnata. The description is as above. The following applies: post-emergence spray at 4-5 leaf stage, 250 g/ha active ingredient with 450 kg/ha water, rated after 3 weeks in greenhouse. Also on record: key: Level 10: completely dead; Level 9: above 95% growth control rate; Level 8: above 90% growth control rate; Level 7: above 80% growth control rate; Level 6: above 70% growth control rate; Level 5: above 60% growth control rate; Level 4: above 50% growth control rate; Level 3: above 20% growth control rate; Level 2: 5%-20% growth control rate; Level 1: below 5% growth control rate. The procedure, abridged:
as §4

Another series has as its system Indian mallow. The series is described as above. Also on record: key: Level 10: completely dead; Level 9: above 95% growth control rate; Level 8: above 90% growth control rate; Level 7: above 80% growth control rate; Level 6: above 70% growth control rate; Level 5: above 60% growth control rate; Level 4: above 50% growth control rate; Level 3: above 20% growth control rate; Level 2: 5%-20% growth control rate; Level 1: below 5% growth control rate. The note with it: post-emergence spray at 4-5 leaf stage, 250 g/ha active ingredient with 450 kg/ha water, rated after 3 weeks in greenhouse. The procedure, abridged:
as §4

The subject of the next series is alopecurus japonicas. The series is described as follows: wheat field resistant weed control, greenhouse spray at 4 leaf stage. On the set-up: key: Level 10: completely dead; Level 9: above 95% growth control rate; Level 8: above 90% growth control rate; Level 7: above 80% growth control rate; Level 6: above 70% growth control rate; Level 5: above 60% growth control rate; Level 4: above 50% growth control rate; Level 3: above 20% growth control rate; Level 2: 5%-20% growth control rate; Level 1: below 5% growth control rate. The following applies: sprayed at 4 leaf stage, 4 weeks after treatment, resistant to ALS and ACCase inhibitor herbicides. As to the method: as §1, §2, §3

Take `Cc1nn(C)cc1C(=O)Oc1c(C(=O)c2ccc(C(F)(F)F)c(N3CCCC3=O)c2Cl)c(C2CC2)nn1C` [Compound 027]: the “Wheat (activity level, crop damage)” value in the series with wheat [1] (2 g/mu) is 1 (Level 1: below 5% growth control rate); in the series on wheat [1] (4 g/mu), 4 (Level 4: above 50% growth control rate); with wheat [1] (8 g/mu), 4 (Level 4: above 50% growth control rate); in the series on wheat [1] (16 g/mu), 4 (Level 4: above 50% growth control rate); in the series on wheat [1] (32 g/mu) it was 5 (Level 5: above 60% growth control rate). Further, the “effect on crop, Rice (level)” value in the series with rice is 7 (Level 7: above 80% growth control rate). Moreover, the “effect on crop, Corn (level)” value in the series on corn is on record as 4 (Level 4: above 50% growth control rate). In addition, the “effect on crop, Wheat (level)” value in the series on wheat [2] is listed as 3 (Level 3: above 20% growth control rate). Further, in the series on echinochloa, the “weed control effect, Echinochloa (level)” value was 7 (Level 7: above 80% growth control rate). The “weed control effect, Crab grass (level)” value in the series with crab grass is 8 (Level 8: above 90% growth control rate). Besides, the “weed control effect, Rorippa indica (level)” value with rorippa indica was 7 (Level 7: above 80% growth control rate). Also, the “weed control effect, Green foxtail (level)” value with foxtail came out at 10. Also, the “weed control effect, Bidens bipinnata (level)” value with bidens bipinnata is 8 (Level 8: above 90% growth control rate). Further, the “weed control effect, Indian mallow (level)” value in the series with Indian mallow came to 10. Besides, the “Alopecurus japonicas weed controlling effect (activity level)” value in the series on alopecurus japonicas (1 g/mu) was 6 (Level 6: above 70% growth control rate); in the series with alopecurus japonicas (2 g/mu), 10; in the series with alopecurus japonicas (4 g/mu), 10; with alopecurus japonicas (8 g/mu) it was 10.
Turning to `CCOc1c(C(=O)Oc2c(C(=O)c3ccc(C(F)(F)F)c(N4CCCC4=O)c3Cl)c(C3CC3)nn2C)cnn1C` [Compound 026], the “Wheat (activity level, crop damage)” value with wheat [1] (2 g/mu) was 1 (Level 1: below 5% growth control rate); in the series on wheat [1] (4 g/mu), 3 (Level 3: above 20% growth control rate); in the series on wheat [1] (8 g/mu), 8 (Level 8: above 90% growth control rate); in the series on wheat [1] (16 g/mu) it was 8 (Level 8: above 90% growth control rate); with wheat [1] (32 g/mu) it was 8 (Level 8: above 90% growth control rate). For the same molecule, in the series on rice, the “effect on crop, Rice (level)” value is reported as 8 (Level 8: above 90% growth control rate). Also, the “effect on crop, Corn (level)” value in the series on corn is recorded as 4 (Level 4: above 50% growth control rate). In the series on wheat [2], the “effect on crop, Wheat (level)” value is listed as 4 (Level 4: above 50% growth control rate). In addition, the “weed control effect, Echinochloa (level)” value with echinochloa is 6 (Level 6: above 70% growth control rate). Further, in the series with crab grass, the “weed control effect, Crab grass (level)” value is on record as 10. In addition, the “weed control effect, Green foxtail (level)” value in the series with foxtail is listed as 10. Moreover, the “weed control effect, Bidens bipinnata (level)” value in the series with bidens bipinnata is reported as 5 (Level 5: above 60% growth control rate). Further, the “weed control effect, Indian mallow (level)” value in the series with Indian mallow worked out at 10. Besides, the “Alopecurus japonicas weed controlling effect (activity level)” value in the series with alopecurus japonicas (1 g/mu) was 8 (Level 8: above 90% growth control rate); with alopecurus japonicas (2 g/mu), 10; in the series on alopecurus japonicas (4 g/mu), 10; in the series on alopecurus japonicas (8 g/mu), 10.
On to `CCn1nc(C2CC2)c(C(=O)c2ccc(C(F)(F)F)c(N3CCCCC3=O)c2Cl)c1OC(=O)c1cn(C)nc1C` [Compound 115], for which the “Wheat (activity level, crop damage)” value with wheat [1] (2 g/mu) is given as 0; in the series on wheat [1] (4 g/mu), 1 (Level 1: below 5% growth control rate); in the series with wheat [1] (8 g/mu), 3 (Level 3: above 20% growth control rate); in the series on wheat [1] (16 g/mu) it was 4 (Level 4: above 50% growth control rate); with wheat [1] (32 g/mu), 4 (Level 4: above 50% growth control rate). The “effect on crop, Rice (level)” value in the series with rice is listed as 8 (Level 8: above 90% growth control rate). Besides, in the series with corn, the “effect on crop, Corn (level)” value was 3 (Level 3: above 20% growth control rate). The “effect on crop, Wheat (level)” value with wheat [2] is recorded as 1 (Level 1: below 5% growth control rate). Moreover, the “weed control effect, Echinochloa (level)” value in the series on echinochloa is reported as 9 (Level 9: above 95% growth control rate). The “weed control effect, Crab grass (level)” value in the series with crab grass is reported as 2 (Level 2: 5%-20% growth control rate). The “weed control effect, Rorippa indica (level)” value with rorippa indica amounted to 10. Further, the “weed control effect, Green foxtail (level)” value in the series with foxtail is reported as 10. For the same molecule, the “weed control effect, Bidens bipinnata (level)” value in the series with bidens bipinnata is 6 (Level 6: above 70% growth control rate). Besides, the “weed control effect, Indian mallow (level)” value in the series on Indian mallow is listed as 10. Besides, the “Alopecurus japonicas weed controlling effect (activity level)” value in the series on alopecurus japonicas (1 g/mu) was 4 (Level 4: above 50% growth control rate); in the series with alopecurus japonicas (2 g/mu) it was 6 (Level 6: above 70% growth control rate); in the series with alopecurus japonicas (4 g/mu), 10; with alopecurus japonicas (8 g/mu) it was 10.
For `Cn1cc(C(=O)Oc2c(C(=O)c3ccc(C(F)(F)F)c(N4CCCCC4=O)c3Cl)c(C3CC3)nn2C)cn1` [Compound 049], the “Wheat (activity level, crop damage)” value in the series on wheat [1] (2 g/mu) is on record as 0; with wheat [1] (4 g/mu) it was 1 (Level 1: below 5% growth control rate); with wheat [1] (8 g/mu), 1 (Level 1: below 5% growth control rate); in the series on wheat [1] (16 g/mu) it was 3 (Level 3: above 20% growth control rate); in the series with wheat [1] (32 g/mu), 3 (Level 3: above 20% growth control rate). For the same molecule, in the series with rice, the “effect on crop, Rice (level)” value is recorded as 7 (Level 7: above 80% growth control rate). In addition, in the series with corn, the “effect on crop, Corn (level)” value was 2 (Level 2: 5%-20% growth control rate). Further, the “effect on crop, Wheat (level)” value with wheat [2] was 3 (Level 3: above 20% growth control rate). Besides, the “weed control effect, Echinochloa (level)” value in the series with echinochloa was 6 (Level 6: above 70% growth control rate). Moreover, the “weed control effect, Crab grass (level)” value in the series on crab grass was 6 (Level 6: above 70% growth control rate). In the series on rorippa indica, the “weed control effect, Rorippa indica (level)” value stood at 10. Besides, in the series with foxtail, the “weed control effect, Green foxtail (level)” value is 9 (Level 9: above 95% growth control rate). Moreover, in the series on bidens bipinnata, the “weed control effect, Bidens bipinnata (level)” value was 4 (Level 4: above 50% growth control rate). The “weed control effect, Indian mallow (level)” value in the series on Indian mallow was 10. Besides, the “Alopecurus japonicas weed controlling effect (activity level)” value in the series with alopecurus japonicas (1 g/mu) is 8 (Level 8: above 90% growth control rate); in the series on alopecurus japonicas (2 g/mu), 9 (Level 9: above 95% growth control rate); with alopecurus japonicas (4 g/mu), 10; with alopecurus japonicas (8 g/mu) it was 10.
